These results are taken from ChEMBL document CHEMBL5518160, “Progress in the development of TRPV1 small-molecule antagonists: Novel Strategies for pain management” (Eur J Med Chem, 2023).

The target in assay [1] is T1, Transient receptor potential cation channel subfamily V member 1 (Homo sapiens, UniProt Q8NER1). Nature of the assay: Antagonist activity at human TRPV1 expressed in HEK293 cells assessed as inhibition of capsaicin-induced increase in intracellular Ca2+ level incubated for 2 mins by scintillation counter analysis. In kind it is cell-based.
T1 sequence (Q8NER1 whole entry): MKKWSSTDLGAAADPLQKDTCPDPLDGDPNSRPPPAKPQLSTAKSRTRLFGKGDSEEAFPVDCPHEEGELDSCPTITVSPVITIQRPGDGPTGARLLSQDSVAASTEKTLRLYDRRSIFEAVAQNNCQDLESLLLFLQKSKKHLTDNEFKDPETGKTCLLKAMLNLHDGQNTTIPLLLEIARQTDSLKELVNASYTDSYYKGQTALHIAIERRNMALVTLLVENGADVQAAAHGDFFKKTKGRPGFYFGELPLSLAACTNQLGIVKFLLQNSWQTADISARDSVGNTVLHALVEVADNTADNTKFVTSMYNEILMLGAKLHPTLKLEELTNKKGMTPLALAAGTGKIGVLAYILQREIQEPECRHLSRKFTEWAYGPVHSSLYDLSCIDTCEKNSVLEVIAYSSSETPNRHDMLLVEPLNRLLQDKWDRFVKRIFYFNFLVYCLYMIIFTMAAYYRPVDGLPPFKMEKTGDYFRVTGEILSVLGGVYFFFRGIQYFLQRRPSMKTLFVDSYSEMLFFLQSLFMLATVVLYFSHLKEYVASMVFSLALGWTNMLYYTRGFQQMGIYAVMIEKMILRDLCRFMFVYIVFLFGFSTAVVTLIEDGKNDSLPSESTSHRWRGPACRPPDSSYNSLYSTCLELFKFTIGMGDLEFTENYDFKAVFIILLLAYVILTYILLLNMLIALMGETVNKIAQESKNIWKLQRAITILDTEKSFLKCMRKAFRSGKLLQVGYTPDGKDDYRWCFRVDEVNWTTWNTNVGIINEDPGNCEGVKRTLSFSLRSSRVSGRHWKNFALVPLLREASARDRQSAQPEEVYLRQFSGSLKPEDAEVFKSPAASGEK
The target of assay [2] is T1, Transient receptor potential cation channel subfamily V member 1. Nature of the assay: Antagonist activity at human TRPV1 expressed in HEK293 cells assessed as inhibition of NADA-induced increase in intracellular Ca2+ level incubated for 2 mins by scintillation counter analysis. In kind it is cell-based.
Assay [3] addresses T2, Transient receptor potential cation channel subfamily V member 1 (Rattus norvegicus, UniProt O35433). The experiment in a line: Inhibition of rat TRPV1 assessed as inhibition of capsaicin-induced increase in intracellular Ca2+ level. In kind it is cell-based.
Assay [4] concerns the target T3, Prostaglandin G/H synthase 2 (Homo sapiens, UniProt P35354).
T3 sequence (P35354 whole entry): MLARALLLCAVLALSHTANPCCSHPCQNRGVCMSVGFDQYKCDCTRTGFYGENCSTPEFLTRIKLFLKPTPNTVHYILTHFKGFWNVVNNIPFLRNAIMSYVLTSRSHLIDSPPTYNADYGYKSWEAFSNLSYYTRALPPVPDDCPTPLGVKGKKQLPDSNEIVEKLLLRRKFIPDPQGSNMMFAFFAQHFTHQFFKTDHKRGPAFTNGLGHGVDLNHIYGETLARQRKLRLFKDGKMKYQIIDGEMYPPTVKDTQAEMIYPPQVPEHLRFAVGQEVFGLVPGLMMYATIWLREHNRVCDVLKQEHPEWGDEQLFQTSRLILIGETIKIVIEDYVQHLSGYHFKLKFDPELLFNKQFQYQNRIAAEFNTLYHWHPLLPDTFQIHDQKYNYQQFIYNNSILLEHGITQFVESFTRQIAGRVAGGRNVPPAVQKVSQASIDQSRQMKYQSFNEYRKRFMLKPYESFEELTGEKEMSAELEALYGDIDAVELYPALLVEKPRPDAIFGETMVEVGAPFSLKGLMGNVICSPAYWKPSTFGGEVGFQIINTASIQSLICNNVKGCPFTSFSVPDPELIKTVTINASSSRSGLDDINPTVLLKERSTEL
The experiment in a line: Inhibition of COX-2 (unknown origin).

Assay [5] concerns the target T1, Transient receptor potential cation channel subfamily V member 1. The experiment in a line: Antagonist activity at human TRPV1 assessed as inhibition of capsaicin-induced increase in intracellular Ca2+ level. In kind it is cell-based.
The species named for another assay is Mus musculus. Nature of the assay: Antipruritic effect in mouse assessed as reduction in histamine-induced itching duration relative to control. In kind it is functional. Also on record: scale not given: the % may be the effect or the level left.
Assay [6] has as its target T1, Transient receptor potential cation channel subfamily V member 1. Nature of the assay: Antagonist activity at human TRPV1 expressed in HEK293 cells assessed as inhibition of capsaicin-induced Ca2+ influx by fluorescence based assay. In kind it is cell-based.
Assay [7] has the same target. The experiment in a line: Antagonist activity at human TRPV1 assessed as inhibition of pH-induced increase in intracellular Ca2+ level. In kind it is cell-based.
The target is the same in assay [8]. The experiment in a line: Antagonist activity at capsaicin-induced human TRPV1 activation.
For assay [9] the target is unchanged. Nature of the assay: Binding affinity to human TRPV1 assessed as inhibition constant.
Assay [10] has the same target. Nature of the assay: Antagonist activity at human TRPV1.
Assay [11] shares this target. The experiment in a line: Antagonist activity at human TRPV1 assessed as inhibition of AITC-induced increase in intracellular Ca2+ level. In kind it is cell-based.
Assay [12] has the same target. Nature of the assay: Antagonist activity at human TRPV1 expressed in HEK293 cells assessed as inhibition of capsaicin-induced increase in intracellular Ca2+ level by FLIPR-based Ca2+ assay. In kind it is cell-based.
Assay [13] addresses T2, Transient receptor potential cation channel subfamily V member 1. Nature of the assay: Antagonist activity at rat TRPV1 assessed as inhibition of pH-induced increase in intracellular Ca2+ level. In kind it is cell-based.
Assay [14] shares this target. The experiment in a line: Antagonist activity at rat TRPV1 expressed in CHO cells assessed as inhibition of pH-induced increase in intracellular Ca2+ level by fluorescence based analysis. In kind it is cell-based.
The nature of assay [15]: Antagonist activity at Xenopus oocytes TRPV1 assessed as inhibition of capsaicin-induced increase in intracellular Ca2+ level. Conditions: Xenopus laevis. In kind it is cell-based.

As usually defined, the pIC50 is the negative decadic logarithm of the IC50, by convention in mol/L. In general, pKi refers to −log10 of the Ki, conventionally taken in molar units.

pIC50, pKi: −log10 of the molar value. Bounds are passed on as bounds.

T2 sequence (O35433 whole entry): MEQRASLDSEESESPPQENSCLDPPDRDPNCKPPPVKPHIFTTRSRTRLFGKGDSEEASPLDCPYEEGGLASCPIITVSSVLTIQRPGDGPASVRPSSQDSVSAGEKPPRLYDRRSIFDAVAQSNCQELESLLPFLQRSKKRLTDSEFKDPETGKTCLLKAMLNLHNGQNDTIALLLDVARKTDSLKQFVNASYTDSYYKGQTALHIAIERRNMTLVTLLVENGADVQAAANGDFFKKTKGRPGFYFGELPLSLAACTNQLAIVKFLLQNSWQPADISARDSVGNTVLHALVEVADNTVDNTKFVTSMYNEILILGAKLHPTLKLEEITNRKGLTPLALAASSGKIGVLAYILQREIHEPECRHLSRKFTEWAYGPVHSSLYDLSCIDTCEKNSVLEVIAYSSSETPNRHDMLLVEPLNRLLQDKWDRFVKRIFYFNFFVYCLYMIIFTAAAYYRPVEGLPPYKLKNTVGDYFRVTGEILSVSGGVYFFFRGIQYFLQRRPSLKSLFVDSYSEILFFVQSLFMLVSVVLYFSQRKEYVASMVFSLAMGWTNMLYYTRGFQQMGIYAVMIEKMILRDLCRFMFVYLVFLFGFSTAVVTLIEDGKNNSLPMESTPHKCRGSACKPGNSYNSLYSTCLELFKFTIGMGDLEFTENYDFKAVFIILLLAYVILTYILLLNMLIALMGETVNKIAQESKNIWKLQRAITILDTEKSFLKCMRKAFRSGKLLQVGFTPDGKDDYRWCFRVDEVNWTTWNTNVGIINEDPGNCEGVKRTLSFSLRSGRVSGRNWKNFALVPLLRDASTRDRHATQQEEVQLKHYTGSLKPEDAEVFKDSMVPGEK

Turning to `CCC1(CC)CC(NC(=O)Nc2cccc3c(C)nccc23)c2cc(F)ccc2O1` (stereo unspecified), the pIC50 is 7.72 in assay [1] and 8.15 in assay [2].

In the case of `COc1cc(/C=C/C(=O)NS(=O)(=O)c2ccc(-n3nc(C(F)(F)F)cc3-c3ccc(C)cc3)cc2)ccc1O`, the values for the negative-log IC50 (pIC50) in [3] and in [4] were 6.85 and 7.64, respectively.

For the molecule `O=C(C(c1ccccc1)N1C(=O)CCC1=O)N1CCN(c2cccc(C(F)(F)F)c2)CC1` (stereo unspecified), the pIC50 in [5] was 4.35.

Consider `CCCCCCCCCCCC(=O)OCC(=O)NCc1cc(OC)c(O)cc1I`, for which, in the assay filed under Mus musculus, the Activity is recorded as less than 1%.

For `C=Cc1cc([C@@H](C)NC(=O)/C(C)=C/c2ccc(C(C)(C)C)cc2)ccc1NS(C)(=O)=O`, the pIC50 in [6] was 7.66.

Turning to `COc1cc(CNC(=O)COC(=O)/C=C(\C)CC=C(C)C)c(I)cc1O`, the pIC50 in assay [5] is 7.05.

On to `O=C(Nc1ccc(Br)cc1)[C@@H]1CCCN1C(=O)Nc1cccc2cnccc12`, for which the pIC50 in assay [5] was 7.08; in assay [7] it was 6.50.

Molecule `COc1cc(C(=O)NS(=O)(=O)c2ccc(-n3nc(C(F)(F)F)cc3-c3ccc(C)cc3)cc2)ccc1O` had a pIC50 in assay [4] of 7.96.

Turning to `Cc1cc(C)nc(NC(=O)N2CCN(Cc3ccccc3N3CCCC3)CC2)c1`, the pIC50 in assay [8] was 8.01.

Regarding `CN(C)C1(Cc2ccccc2)CCN(c2cc(C(F)(F)F)ccc2CNC(=O)Nc2cccc3ncccc23)CC1`, the negative logarithm of the Ki (pKi) in assay [9] was 7.49. Moreover, in [10], the pIC50 was 7.97.

Consider `O=C1C[C@@H](c2ccc(O[C@@H]3O[C@H](CO)[C@@H](O)[C@H](O)[C@H]3O)cc2)Oc2cc(O)ccc21` [LIQUIRITIN], for which the figures for the pIC50 in [5] and in assay [11] were 5.01 and 4.79, respectively.

Regarding `O=C(Nc1ccccc1Br)N[C@@H]1CCN(c2ccc(C(F)(F)F)cn2)C1` [SB-705498], the pIC50 in assay [12] is 8.52; in assay [13], 8.22.

With `CC1CCN(c2nc(C(F)(F)F)ccc2CNC(=O)Cc2c(F)cccc2Cl)CC1`, in assay [5], the pIC50 was 8.59.

For the molecule `O=C1/C(=N\Nc2ccccc2)C(C(F)(F)C(F)(F)F)=NN1c1ccccc1`, the pIC50 in [14] was 6.85.

Turning to `C[C@H]1O[C@H](O[C@H]2[C@H](Oc3cc(O)c4c(c3)O[C@H](c3ccc(O)cc3)CC4=O)O[C@H](CO)[C@@H](O)[C@@H]2O)[C@H](O)[C@@H](O)[C@H]1O`, the pIC50 in [15] was 4.48.
